Measured values published in publication PMC12678337, “EAR-20 peptide, a novel NMDA receptor positive allosteric modulator” (Frontiers in Pharmacology, 2025).
No end group written: not given here.

How the values were obtained:
[1] = system: NMDARs; set-up: method as in 3 sources, one per row (each row's own in cited_ref): ref Johnson and Ascher, 1987 ||| ref Chopra et al., 2015 ||| ref Lerma, 1992; conditions: cited from earlier work
[2] = target: T1, GluN1-GluN2B (Rattus norvegicus, UniProt P35439+Q00960); format: cell-based
T1 construct: GFP (N); expressed in transfected cells; host or cells: HEK-293T
T1 sequence (Q00960 27-1482, other chains not shown): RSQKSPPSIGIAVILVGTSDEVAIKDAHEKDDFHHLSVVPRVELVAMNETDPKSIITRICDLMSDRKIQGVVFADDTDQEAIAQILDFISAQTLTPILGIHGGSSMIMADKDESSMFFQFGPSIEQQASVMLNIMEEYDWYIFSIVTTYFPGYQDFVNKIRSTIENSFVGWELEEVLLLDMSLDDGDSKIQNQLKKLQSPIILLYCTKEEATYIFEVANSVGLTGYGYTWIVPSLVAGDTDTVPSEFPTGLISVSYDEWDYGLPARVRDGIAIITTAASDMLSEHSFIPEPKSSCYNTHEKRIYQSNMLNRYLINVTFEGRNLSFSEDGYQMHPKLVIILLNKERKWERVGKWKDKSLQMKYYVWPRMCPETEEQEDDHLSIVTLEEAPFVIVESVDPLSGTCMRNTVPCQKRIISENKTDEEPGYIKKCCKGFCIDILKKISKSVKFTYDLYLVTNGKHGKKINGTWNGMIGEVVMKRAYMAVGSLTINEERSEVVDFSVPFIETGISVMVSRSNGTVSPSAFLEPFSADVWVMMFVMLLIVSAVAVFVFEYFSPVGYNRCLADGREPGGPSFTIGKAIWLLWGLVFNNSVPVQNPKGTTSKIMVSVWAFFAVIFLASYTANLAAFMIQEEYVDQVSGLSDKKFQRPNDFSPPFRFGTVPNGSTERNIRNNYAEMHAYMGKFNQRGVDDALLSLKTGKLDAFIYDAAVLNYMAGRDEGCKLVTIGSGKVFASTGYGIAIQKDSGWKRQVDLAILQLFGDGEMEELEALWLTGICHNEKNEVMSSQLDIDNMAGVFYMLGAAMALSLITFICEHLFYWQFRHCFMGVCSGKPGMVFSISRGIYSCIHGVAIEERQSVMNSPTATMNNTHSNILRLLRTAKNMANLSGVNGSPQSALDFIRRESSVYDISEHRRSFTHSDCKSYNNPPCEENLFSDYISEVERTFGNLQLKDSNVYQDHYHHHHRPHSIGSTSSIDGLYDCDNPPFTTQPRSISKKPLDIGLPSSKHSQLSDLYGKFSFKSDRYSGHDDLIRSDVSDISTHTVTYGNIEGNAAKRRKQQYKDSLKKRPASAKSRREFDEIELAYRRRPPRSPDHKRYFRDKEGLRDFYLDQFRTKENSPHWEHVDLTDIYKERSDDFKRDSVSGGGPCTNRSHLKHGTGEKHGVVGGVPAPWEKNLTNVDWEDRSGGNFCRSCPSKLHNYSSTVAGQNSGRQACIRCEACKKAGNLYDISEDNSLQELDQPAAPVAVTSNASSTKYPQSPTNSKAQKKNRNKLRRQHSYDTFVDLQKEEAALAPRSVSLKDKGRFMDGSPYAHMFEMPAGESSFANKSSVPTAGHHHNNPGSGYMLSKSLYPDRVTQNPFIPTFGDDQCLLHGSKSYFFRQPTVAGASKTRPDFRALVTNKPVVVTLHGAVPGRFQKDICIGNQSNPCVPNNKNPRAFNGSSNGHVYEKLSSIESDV

[3] = system: synaptic NMDARs, cultured hippocampal neurons; format: cell-based, rat
[4] = system: triheteromeric NMDARs (GluN1, GluN2A, GluN2B); conditions: cited from earlier work
[5] = system: GluN1-GluN2A receptors; conditions: channel blocker; ref Wang et al., 2021; cited from earlier work
[6] = system: GluN1-GluN2B^ΔNTD; test: whole-cell patch clamp, ifenprodil inhibition of NTD-deleted GluN1-GluN2B; format: cell-based; conditions: 10 µM ifenprodil co-applied with agonists; HEK-293
[7] = system: GluN2B-containing di-heteromers; conditions: ref Kellner and Berlin, 2024; cited from earlier work

## pregnenolone sulfate
[1]
  tail-like response on removal of modulator: tail-like response

## N[C@@H](CCC(=O)O)C(=O)O [glutamate, L-glutamate, reference compound]
[2]
  response to glutamate alone: generated a significant current response
[1]; ref Johnson and Ascher, 1987
  activation by glutamate alone: slightly activate the channel

## Con-G: marine cone snail toxin, NMDAR antagonist targeting the GluN2B ligand binding domain (GEEELQENQELIREKSN; not fully specified (residues 3, 4, 7, 10, 14, C-terminus); ends and bridges not checked; UniProt P07231 81-97, looked up)
[1]
  NMDAR activity: NMDAR antagonist

## CC12CC3CC(C)(C1)CC(N)(C3)C2 [memantine]
[3]
  effect on EPSCs: abolished
[4]; compared to NMDARs containing only GluN2B, ref Chen et al., 2020
  affinity for triheteromeric NMDARs: lower affinity for triheteromeric NMDARs

## Nc1c2ccccc2nc2ccccc12 [9-aminoacridine]
[5]
  current following removal: a transient inward current

## CC(C(O)c1ccc(O)cc1)N1CCC(Cc2ccccc2)CC1 (stereo not shown) [ifenprodil]
[6]
  inhibition of agonist-evoked current: no inhibitory effect was observed

## NCCCNCCCCNCCCN [spermine]
[4]; ref Kellner and Berlin, 2024
  enhancement of triheteromeric NMDARs: fails to enhance triheteromeric NMDARs
[7]
  potentiation of GluN2B-containing di-heteromers: strongly potentiates GluN2B-containing di-heteromers
